# Measured values as given in ChEMBL document CHEMBL1201862, “PubChem BioAssay data set” (2004).
# Active and inactive are the calls of the source.
# Assays:
# [1] = molecular target: Mitogen-activated protein kinase 10 (Homo sapiens, UniProt P53779); test: Dose response biochemical screening assay for inhibitors of c-Jun N-Terminal Kinase 3 (JNK3). [Related pubchem assays: 746 ]
# [2] = M. tuberculosis H37Rv growth inhibitors, H37Rv strain (AID 1626); assay type: functional
# [3] = molecular target: Peroxisome proliferator-activated receptor gamma/Nuclear receptor coactivator 1 (Homo sapiens, UniProt P37231); test: TR-FRET dose response biochemical High Throughput Screening assay for agonists of the steroid receptor coactivator 1 (SRC-1) recruitment by the peroxisome proliferator-activated receptor gamma (PPAR gamma): non-selective agonists. [Related pubchem assays (depositor defined):AID1300, AID1808, AID504735, AID631]; assay type: protein assay
# [4] = molecular target: T1, Luciferin 4-monooxygenase (Photinus pyralis, UniProt P08659); test: Counter Screen for Luciferase-based Assay Positives. [Related pubchem assays: 620, 618, 411 ]
# [5] = molecular target: Peroxisome proliferator-activated receptor gamma/Nuclear receptor coactivator 3 (Homo sapiens, UniProt P37231); test: TR-FRET dose response biochemical High Throughput Screening assay for agonists of the steroid receptor coactivator 3 (SRC-3) recruitment by the peroxisome proliferator-activated receptor gamma (PPAR gamma): non-selective agonists. [Related pubchem assays: 1301 (Confirmation screen.), 1048 (Primary screen.)]; assay type: functional
# [6] = Luminescence-based dose response cell-based high throughput screening assay for cytotoxic compounds using the IEC-6 intestinal epithelial cell line. [Related pubchem assays: 1858 (Summary AID.), 1825 (Counterscreen.), 1907 (Confirmation screen.)]; assay type: functional
# HT-1080 = test: HT1080 cell viability loss – fluorescence readout (AID 620); assay type: functional, cell-based; conditions: Homo sapiens
# [7] = molecular target: Peroxisome proliferator-activated receptor gamma/Nuclear receptor coactivator 2 (Homo sapiens, UniProt P37231); test: TR-FRET dose response biochemical High Throughput Screening assay for agonists of the steroid receptor coactivator 2 (SRC-2) recruitment by the peroxisome proliferator-activated receptor gamma (PPAR gamma): non-selective agonists. [Related pubchem assays: 1297, 1032 ]; assay type: functional
# [8] = molecular target: RNA-editing ligase 1, mitochondrial (Trypanosoma brucei brucei, UniProt P86926); test: inhibition of trypanosome RNA editing ligase – biochemical, fluorescence, Trypanosoma brucei, dose response (AID 1117295); assay type: functional
# Genome polyprotein = Genome polyprotein (Hepatitis C virus, UniProt Q2Q167); test: disruption of hepatitis C core self-association – biochemical, TR-FRET, dose response (AID 2159); parameters: species or system Hepacivirus hominis;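 also: blocks dimerization of HCV core protein measured by TR-FRET between tagged core106 pairs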
# Kallikrein-7 = Kallikrein-7 (Homo sapiens, UniProt P49862); test: Fluorescence Intensity-based biochemical primary high throughput dose response assay to identify activators of kallikrein-7 (K7) zymogen.
# Protein skinhead-1 = molecular target: T2, Protein skinhead-1 (Caenorhabditis elegans, UniProt P34707); assay type: functional
# T2 sequence (P34707 whole entry): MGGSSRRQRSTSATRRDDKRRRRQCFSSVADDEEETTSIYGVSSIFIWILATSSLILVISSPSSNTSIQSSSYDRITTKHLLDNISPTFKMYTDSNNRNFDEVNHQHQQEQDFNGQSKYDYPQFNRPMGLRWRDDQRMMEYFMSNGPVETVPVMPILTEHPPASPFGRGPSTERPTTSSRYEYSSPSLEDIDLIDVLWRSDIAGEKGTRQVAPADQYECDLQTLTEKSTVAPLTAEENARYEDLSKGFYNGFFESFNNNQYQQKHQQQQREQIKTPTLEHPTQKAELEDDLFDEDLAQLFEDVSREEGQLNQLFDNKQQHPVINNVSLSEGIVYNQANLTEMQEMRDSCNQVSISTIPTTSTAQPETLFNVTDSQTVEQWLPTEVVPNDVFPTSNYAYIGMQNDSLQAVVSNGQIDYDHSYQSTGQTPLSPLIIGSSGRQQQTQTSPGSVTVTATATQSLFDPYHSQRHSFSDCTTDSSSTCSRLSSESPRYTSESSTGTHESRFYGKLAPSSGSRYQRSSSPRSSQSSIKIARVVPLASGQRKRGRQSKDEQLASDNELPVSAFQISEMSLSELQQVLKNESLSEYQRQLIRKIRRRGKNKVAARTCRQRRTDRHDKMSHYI
# [9] = reduced cellular PGC1a acetyl-lysine signal – cell-based, cherry-picked samples, dose response (AID 720514); assay type: functional;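 also: potency may reflect raised or lowered acetylation signal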
# [10] = molecular target: T1, Luciferin 4-monooxygenase; test: inhibition of purified Photinus pyralis luciferase – biochemical, luminescence, dose response (AID 1891)
# [11] = Luminescence Cell-Based Dose Confirmation HTS to Identify Inhibitors of Platelet Dense Granule Release. [Related pubchem assays: 1663 (Primary HTS), 1678 (Summary of Project)]; assay type: functional
# [12] = molecular target: T3, Mannose-6-phosphate isomerase (Homo sapiens, UniProt P34949); test: MPI inhibition at elevated mannose 6-phosphate – biochemical, fluorescence intensity, high mannose 6-phosphate, primary screen (AID 1220)
# T3 sequence (P34949 whole entry): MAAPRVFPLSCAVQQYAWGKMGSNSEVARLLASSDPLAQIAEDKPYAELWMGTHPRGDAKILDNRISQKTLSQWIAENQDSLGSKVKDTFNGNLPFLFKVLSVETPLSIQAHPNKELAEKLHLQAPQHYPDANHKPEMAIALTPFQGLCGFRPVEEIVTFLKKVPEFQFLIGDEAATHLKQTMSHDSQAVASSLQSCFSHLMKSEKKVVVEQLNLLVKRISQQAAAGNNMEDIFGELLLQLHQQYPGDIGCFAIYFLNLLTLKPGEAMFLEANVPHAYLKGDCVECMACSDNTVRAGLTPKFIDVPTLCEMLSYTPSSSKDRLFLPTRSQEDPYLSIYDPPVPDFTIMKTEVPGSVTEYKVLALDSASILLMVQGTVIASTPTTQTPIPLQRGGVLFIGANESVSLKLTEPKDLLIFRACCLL
# [13] = molecular target: Long-chain-fatty-acid--AMP ligase FadD28 (Mycobacterium tuberculosis, UniProt P9WQ59); test: Fluorescence polarization aasay to screen for inhibitors that compete for the binding of FadD28 to a bisubstrate Measured in Biochemical System Using Plate Reader - 2147-01_Inhibitor_Dose_CherryPick_Activity.; assay type: functional, Mycobacterium tuberculosis H37Rv
# [14] = molecular target: T4, Oxysterols receptor LXR-beta (Homo sapiens, UniProt P55055); assay type: functional, cell-based;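 also: Cell-based luminescence dose-response assay of agonist activity at LXR, run as a confirmatory counterscreen to a daf-12 agonist screen; HEK293 cells with Gal4-LXR fusion and GAL4-driven luciferase reporter; agonist potency from rising luciferase signal of a Gal4-LXR reporter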
# T4 sequence (P55055 whole entry): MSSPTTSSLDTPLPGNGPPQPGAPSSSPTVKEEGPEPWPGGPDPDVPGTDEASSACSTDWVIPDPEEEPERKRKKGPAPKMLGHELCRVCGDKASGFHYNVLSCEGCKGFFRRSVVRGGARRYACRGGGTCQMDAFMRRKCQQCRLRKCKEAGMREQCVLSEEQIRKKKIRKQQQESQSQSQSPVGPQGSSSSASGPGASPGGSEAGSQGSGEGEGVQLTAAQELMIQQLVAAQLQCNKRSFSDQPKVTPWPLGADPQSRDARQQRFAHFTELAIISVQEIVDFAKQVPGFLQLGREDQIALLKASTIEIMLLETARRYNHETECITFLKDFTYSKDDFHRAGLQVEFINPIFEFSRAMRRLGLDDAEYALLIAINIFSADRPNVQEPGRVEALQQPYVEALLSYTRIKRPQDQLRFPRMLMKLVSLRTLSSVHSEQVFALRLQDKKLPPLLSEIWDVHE
# Paired box protein Pax-8 = Paired box protein Pax-8 (Homo sapiens, UniProt Q06710); test: PAX8 transcriptional activity inhibition in RMG-I – RMG-I cells, luciferase, cherry-pick, dose response (AID 687027); assay type: functional, cell-based;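 also: luciferase reporter driven by Pax8 target thyroperoxidase promoter measured by SteadyGlo luminescence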
# [15] = HIV-1 AD8 envelope cell-cell fusion blockers – cherry-pick, dose response (AID 652062); assay type: functional, cell-based;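 also: luciferase signal from cell-cell fusion driven by HIV-1 clade B AD8 Env; potency is for inhibitors of fusion seen as a drop in luminescence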
# [16] = toxicity toward immortalized ovarian surface epithelium – cell-based, plate reader, dry powder samples, cytotoxicity control for PAX8 inhibitor project, dose response (AID 743045); assay type: functional
# [17] = OVCAR-3 cell viability loss – plate reader, dry powder samples, PAX8 inhibitor project, dose response (AID 743044); assay type: functional, cell-based
# [18] = A549 cell cytotoxicity, dose response, cytotoxicity control, plate reader, cherry-pick, antagonist series (AID 743412); assay type: functional, cell-based
# [19] = IGROV1 cell killing – plate reader, dry powder samples, PAX8 inhibitor project, dose response (AID 743043); assay type: functional, cell-based; conditions: IGROV-1
# [20] = blockers of bursicon-stimulated LGR2 cAMP reporter – cell-based, HEK293, CRE-luciferase reporter, cherry pick, set 2, dose response (AID 743343); assay type: functional;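 also: transfected cells were stimulated with diluted bursicon conditioned medium after compound addition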
# [21] = general cell-killing toxicity readout – plate reader, dry powder samples, cytotoxicity control for PAX8 inhibitor project, dose response (AID 743021); assay type: functional, cell-based
# [22] = blockade of melanocortin 4 receptor signaling – cell-based, plate reader, cherry pick, counter-screen for LGR2 antagonist project, dose response (AID 743444); assay type: functional;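 also: transfected HEK 293 cells stimulated with alpha-MSH peptide; potency of inhibitors of the alpha-MSH evoked signal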
# [23] = OVCAR8 cell viability loss – plate reader, dry powder samples, PAX8 project, dose response (AID 743197); assay type: functional, cell-based; conditions: OVCAR-8
# [24] = viability loss in HEK293 cells – cell-based, plate reader, cherry-picked samples, cytotoxicity control, dose response (AID 743446); assay type: functional
# [25] = toxicity toward HepG2 liver cells – cell-based, plate reader, cherry-pick, antagonist series, cytotoxicity control, dose response (AID 743416); assay type: functional
# [26] = growth inhibition of yeast DHODH-expressing 3D7 parasites – SYBR Green, dry powder samples, dose response (AID 1159570); assay type: functional, cell-based;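 also: parasite growth measured after 72 hours of compound exposure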
# [27] = toxicity to human HepG2 hepatoma cells – cell-based, plate reader, dry powder samples, cytotoxicity control, dose response (AID 1159569); assay type: functional;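 also: inhibitor potency with signal falling toward the positive control level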
# [28] = P. falciparum Dd2 growth inhibitors, dose response, SYBR Green, cherry-picked samples (AID 1159567); assay type: functional, cell-based
# [29] = Dd2 malaria parasite growth inhibition potency – SYBR Green, dry powder samples, dose response (AID 1159566); assay type: functional, cell-based;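 also: potency for growth inhibition with lower SYBR green DNA signal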
# [30] = toxicity to human hepatoma HepG2 cells – cell-based, cherry-picked samples, cytotoxicity control, dose response (AID 1159577); assay type: functional
# [31] = growth inhibition of PfATP4-mutant resistant parasites – NITD609-resistant line, SYBR Green, dry powder, dose response (AID 1159571); assay type: functional, cell-based;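 also: parasites synchronized at ring stage by sorbitol before testing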
# [32] = rise of 2N DNA cells, HeLa – IC50, dose response (AID 1117349); assay type: functional, cell-based
# [33] = rise of 4N DNA cells, HeLa – IC50, dose response (AID 1117351); assay type: functional, cell-based
# Cytochrome P450 2D6 = Cytochrome P450 2D6 (Homo sapiens, UniProt P10635);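 also: CYP2D6 member of a cytochrome P450 panel assay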
# RNA-editing ligase 1, mitochondrial, sequence (P86926 whole entry): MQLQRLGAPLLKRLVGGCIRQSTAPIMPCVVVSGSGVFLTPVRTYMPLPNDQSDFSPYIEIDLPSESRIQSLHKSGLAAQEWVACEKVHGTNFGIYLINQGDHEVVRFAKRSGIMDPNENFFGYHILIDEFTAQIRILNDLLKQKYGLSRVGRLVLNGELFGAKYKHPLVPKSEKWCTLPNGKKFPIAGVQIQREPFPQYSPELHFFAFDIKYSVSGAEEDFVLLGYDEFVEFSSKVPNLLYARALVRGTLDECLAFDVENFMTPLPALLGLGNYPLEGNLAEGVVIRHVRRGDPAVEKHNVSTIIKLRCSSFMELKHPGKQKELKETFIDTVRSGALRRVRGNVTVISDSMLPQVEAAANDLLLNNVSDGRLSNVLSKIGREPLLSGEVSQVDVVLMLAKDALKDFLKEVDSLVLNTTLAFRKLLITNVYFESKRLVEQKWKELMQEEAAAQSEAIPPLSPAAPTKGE
# Mitogen-activated protein kinase 10, sequence (P53779 whole entry): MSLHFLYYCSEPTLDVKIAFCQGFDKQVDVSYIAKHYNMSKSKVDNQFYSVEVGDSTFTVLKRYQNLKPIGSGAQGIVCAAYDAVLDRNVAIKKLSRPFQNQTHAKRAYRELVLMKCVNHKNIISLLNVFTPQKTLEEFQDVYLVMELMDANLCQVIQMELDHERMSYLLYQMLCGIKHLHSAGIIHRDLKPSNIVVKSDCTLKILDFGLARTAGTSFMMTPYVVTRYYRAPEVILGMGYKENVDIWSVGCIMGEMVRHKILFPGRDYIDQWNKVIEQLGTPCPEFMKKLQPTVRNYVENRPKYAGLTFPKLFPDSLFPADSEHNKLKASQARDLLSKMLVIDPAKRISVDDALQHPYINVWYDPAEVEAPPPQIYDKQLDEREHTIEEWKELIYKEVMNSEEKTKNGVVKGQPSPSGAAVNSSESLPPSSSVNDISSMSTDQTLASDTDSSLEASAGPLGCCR
# Paired box protein Pax-8, sequence (Q06710 whole entry, the tested form may be a part): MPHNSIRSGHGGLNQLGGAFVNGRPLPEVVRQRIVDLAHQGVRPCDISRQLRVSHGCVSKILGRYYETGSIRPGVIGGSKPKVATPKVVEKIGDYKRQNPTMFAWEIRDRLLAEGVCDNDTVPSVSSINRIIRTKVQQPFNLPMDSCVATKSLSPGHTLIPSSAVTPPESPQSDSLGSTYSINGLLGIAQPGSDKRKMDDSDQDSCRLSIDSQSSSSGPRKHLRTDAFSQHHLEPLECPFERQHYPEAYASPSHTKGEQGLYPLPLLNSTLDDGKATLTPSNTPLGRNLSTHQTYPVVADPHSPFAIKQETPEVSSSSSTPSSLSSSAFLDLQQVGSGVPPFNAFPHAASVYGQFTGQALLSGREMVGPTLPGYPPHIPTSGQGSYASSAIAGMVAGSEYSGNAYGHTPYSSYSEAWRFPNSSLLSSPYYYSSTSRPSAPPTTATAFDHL
# T1 sequence (P08659 whole entry): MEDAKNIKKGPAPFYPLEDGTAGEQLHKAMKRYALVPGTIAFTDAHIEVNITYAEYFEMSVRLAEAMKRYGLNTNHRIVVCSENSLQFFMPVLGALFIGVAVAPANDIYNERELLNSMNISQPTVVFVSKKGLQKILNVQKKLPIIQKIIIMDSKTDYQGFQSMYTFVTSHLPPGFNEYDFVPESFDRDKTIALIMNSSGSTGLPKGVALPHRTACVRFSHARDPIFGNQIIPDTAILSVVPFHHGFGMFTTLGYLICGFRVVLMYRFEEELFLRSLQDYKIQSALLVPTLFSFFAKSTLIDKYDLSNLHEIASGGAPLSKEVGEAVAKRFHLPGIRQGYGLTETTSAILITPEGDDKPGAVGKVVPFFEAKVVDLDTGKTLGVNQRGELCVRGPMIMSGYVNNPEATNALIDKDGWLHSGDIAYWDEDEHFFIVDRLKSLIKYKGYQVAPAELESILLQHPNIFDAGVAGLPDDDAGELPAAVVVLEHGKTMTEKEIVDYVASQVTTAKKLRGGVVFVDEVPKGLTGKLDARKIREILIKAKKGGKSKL
# Genome polyprotein, sequence (Q2Q167 whole entry): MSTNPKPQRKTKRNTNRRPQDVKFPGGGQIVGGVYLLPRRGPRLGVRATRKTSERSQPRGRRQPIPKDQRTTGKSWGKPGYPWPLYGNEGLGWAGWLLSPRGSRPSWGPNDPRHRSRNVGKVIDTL
# Kallikrein-7, sequence (P49862 whole entry): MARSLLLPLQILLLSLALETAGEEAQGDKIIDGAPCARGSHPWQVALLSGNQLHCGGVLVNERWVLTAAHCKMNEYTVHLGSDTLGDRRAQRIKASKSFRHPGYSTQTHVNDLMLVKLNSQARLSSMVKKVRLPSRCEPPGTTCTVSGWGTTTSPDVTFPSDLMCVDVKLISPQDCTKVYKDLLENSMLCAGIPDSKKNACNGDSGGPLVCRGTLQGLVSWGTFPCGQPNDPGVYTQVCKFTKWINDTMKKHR
# Long-chain-fatty-acid--AMP ligase FadD28, sequence (P9WQ59 whole entry, the tested form may be a part): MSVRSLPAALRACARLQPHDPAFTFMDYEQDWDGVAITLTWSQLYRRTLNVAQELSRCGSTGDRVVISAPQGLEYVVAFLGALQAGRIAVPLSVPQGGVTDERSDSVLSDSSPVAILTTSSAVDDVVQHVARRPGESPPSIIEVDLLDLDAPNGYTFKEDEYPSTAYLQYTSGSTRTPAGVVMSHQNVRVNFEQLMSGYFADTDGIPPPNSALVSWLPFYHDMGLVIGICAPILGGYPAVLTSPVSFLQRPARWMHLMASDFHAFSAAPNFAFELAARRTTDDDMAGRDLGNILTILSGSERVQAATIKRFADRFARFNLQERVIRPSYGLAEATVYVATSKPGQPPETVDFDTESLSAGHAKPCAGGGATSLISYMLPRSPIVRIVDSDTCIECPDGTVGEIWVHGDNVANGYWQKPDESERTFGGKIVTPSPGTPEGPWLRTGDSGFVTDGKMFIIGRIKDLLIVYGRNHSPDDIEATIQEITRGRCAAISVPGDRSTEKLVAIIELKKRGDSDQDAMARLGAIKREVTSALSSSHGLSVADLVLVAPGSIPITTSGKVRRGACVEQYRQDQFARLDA
# Peroxisome proliferator-activated receptor gamma/Nuclear receptor coactivator 2, sequence (P37231 whole entry): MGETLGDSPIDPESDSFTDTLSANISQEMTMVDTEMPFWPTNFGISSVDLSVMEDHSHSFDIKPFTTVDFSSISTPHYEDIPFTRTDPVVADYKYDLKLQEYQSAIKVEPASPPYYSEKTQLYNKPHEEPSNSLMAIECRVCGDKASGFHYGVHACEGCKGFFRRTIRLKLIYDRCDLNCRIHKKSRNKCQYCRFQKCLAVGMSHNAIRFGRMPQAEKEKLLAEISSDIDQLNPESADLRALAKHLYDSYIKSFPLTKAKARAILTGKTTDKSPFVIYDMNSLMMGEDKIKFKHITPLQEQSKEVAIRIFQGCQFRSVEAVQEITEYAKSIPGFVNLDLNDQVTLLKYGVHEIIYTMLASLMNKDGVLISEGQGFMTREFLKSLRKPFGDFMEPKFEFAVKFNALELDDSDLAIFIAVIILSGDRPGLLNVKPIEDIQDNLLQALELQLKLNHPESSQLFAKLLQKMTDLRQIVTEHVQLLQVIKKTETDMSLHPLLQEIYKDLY
# Peroxisome proliferator-activated receptor gamma/Nuclear receptor coactivator 2, sequence (Q15596 whole entry, further chain): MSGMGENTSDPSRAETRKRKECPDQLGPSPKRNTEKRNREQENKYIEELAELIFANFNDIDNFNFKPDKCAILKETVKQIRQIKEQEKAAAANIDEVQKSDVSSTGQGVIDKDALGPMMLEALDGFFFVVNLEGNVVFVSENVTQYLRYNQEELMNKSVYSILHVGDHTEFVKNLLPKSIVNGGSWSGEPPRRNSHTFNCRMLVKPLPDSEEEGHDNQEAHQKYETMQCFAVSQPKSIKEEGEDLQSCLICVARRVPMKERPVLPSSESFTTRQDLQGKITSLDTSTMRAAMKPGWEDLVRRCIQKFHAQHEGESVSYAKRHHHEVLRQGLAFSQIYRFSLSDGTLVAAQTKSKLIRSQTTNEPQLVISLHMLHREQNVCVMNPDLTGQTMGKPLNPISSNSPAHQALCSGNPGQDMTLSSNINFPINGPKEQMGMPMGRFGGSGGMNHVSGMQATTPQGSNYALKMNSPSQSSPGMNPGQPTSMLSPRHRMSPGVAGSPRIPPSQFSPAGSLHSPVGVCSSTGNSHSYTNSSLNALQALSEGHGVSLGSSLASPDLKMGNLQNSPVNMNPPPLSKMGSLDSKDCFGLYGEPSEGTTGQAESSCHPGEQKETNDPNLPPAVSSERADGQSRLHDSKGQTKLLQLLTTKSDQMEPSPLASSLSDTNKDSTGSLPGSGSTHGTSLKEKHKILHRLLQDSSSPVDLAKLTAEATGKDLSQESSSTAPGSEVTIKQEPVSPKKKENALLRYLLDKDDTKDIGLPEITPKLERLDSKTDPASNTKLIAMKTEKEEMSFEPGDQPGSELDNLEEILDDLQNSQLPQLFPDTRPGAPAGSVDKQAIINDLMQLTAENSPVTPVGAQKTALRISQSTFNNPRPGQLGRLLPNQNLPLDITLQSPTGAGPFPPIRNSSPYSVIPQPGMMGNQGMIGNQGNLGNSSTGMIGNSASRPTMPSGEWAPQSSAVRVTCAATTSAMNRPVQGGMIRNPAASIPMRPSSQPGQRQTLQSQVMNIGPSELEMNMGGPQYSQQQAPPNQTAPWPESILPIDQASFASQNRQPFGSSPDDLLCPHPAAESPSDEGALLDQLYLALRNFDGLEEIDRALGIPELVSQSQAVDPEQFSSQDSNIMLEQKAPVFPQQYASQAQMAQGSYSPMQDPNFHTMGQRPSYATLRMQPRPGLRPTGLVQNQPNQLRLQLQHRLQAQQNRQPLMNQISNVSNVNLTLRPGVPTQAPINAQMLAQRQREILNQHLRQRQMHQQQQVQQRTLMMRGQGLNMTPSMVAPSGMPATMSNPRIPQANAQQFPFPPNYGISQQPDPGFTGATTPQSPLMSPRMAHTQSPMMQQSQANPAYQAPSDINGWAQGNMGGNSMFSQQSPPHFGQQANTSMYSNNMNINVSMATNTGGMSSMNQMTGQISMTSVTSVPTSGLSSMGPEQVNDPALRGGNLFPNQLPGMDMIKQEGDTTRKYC
smiles,measurement,setting,value
COc1cccc(NC(=O)CCCn2c(=O)[nH]c3ccccc3c2=O)c1,IC50,[1],48.1 µM (not active)
CCOc1ccc(N2C(=O)c3ccc(C(=O)OCC(=O)N(CC)C4CCS(=O)(=O)C4)cc3C2=O)cc1 (configuration not stated),IC50,[2],> 100 µM (active)
CN1/C(=C\C=C\C2=[N+](C)c3ccc4ccccc4c3C2(C)C)C(C)(C)c2ccccc21.[O-][Cl+3]([O-])([O-])[O-],EC50,[3],13.4 µM (inactive)
same,EC50,[4],7.77 µM (active)
same,EC50,[5],> 79.4 µM (not active)
same,IC50,[6],0.761 µM (active)
same,EC50,HT-1080,> 50 µM (not active)
same,EC50,[7],8.19 µM (active)
Sc1nnc(-c2ccc(Br)cc2)n1-c1ccccc1.[Zn+2],IC50,[8],20.2 µM (inactive)
CCCCC(=O)Nc1ncc(Br)s1,IC50,[1],54.9 µM (not active)
Sc1nncn2c1cc1oc3ccccc3c12,IC50,Genome polyprotein,> 49.8 µM (not active)
CCC(NC(=O)Cc1c(C)c2c(cc(C)c3c(C)c(C)oc32)oc1=O)C(=O)O (configuration not stated),EC50,Kallikrein-7,> 69.5 µM (inactive)
O=C(C=Cc1ccccc1)CC(c1ccccc1)N1CCOCC1 (configuration not stated),IC50,Protein skinhead-1,10.9 µM (active)
same,AC50,[9],10.7 µM (active)
C/N=c1\scc(-c2ccccc2F)n1/N=C/c1ccc(O)c(O)c1O,EC50,[10],1.68 µM (active)
same,EC50,[11],2.46 µM (active)
same,IC50,[12],25.8 µM (active)
same,AC50,[13],32 µM (inactive)
same,EC50,[14],> 67.5 µM (inactive)
same,EC50,cells,> 67.5 µM (inactive)
COc1ccccc1C#Cc1ccc([C@H]2[C@H](C#N)N(C(=O)C3CCCC3)[C@H]2CO)cc1,AC50,Paired box protein Pax-8,4.38 µM (active)
same,AC50,[15],9.51 µM (active)
same,AC50,[16],21.8 µM (active)
same,AC50,[9],4.17 µM (active)
same,AC50,[17],8.21 µM (active)
same,AC50,[18],> 52 µM (inactive)
same,AC50,[19],32.2 µM (active)
same,AC50,[20],9.13 µM (active)
same,AC50,[21],19.8 µM (active)
same,AC50,[22],3.59 µM (active)
same,AC50,[23],10.6 µM (active)
same,AC50,[24],> 52 µM (inactive)
C[C@@H]1CN([C@@H](C)CO)C(=O)c2c(c3ccccc3n2C)-c2ccccc2CO[C@@H]1CN(C)S(=O)(=O)c1ccc(C(F)(F)F)cc1,AC50,Paired box protein Pax-8,6.8 µM (active)
same,AC50,[18],22.3 µM (active)
same,AC50,[25],21.9 µM (active)
same,AC50,[19],58.4 µM (active)
same,AC50,[20],51.6 µM (active)
same,AC50,[22],54.3 µM (active)
same,AC50,[24],34.5 µM (active)
same,AC50,[26],2.24 µM (active)
same,AC50,[27],20.9 µM (active)
same,AC50,[28],2.57 µM (active)
same,AC50,[29],1.63 µM (active)
same,AC50,[30],> 39 µM (inactive)
same,AC50,[31],2.21 µM (active)
COC(=O)c1nc(Cl)c(Cl)nc1N,IC50,[32],0.334 µM (active)
same,IC50,[33],0.511 µM (active)
COc1ccc(/N=C/C2=C(O)OCC2)cc1,IC50,[2],> 100 µM (active)
COc1cccc(CN(C)C(=O)[C@H]2O[C@@H](n3cnc4c(=O)[nH]c(N)nc43)[C@H](O)[C@@H]2O)c1,IC50,[8],> 96.6 µM (inactive)
O=C(C1CCC1)N1C[C@@H]2N[C@H](C1)[C@@H]2c1ccc(-c2ccccc2F)cc1,AC50,[26],3.03 µM (active)
same,AC50,[27],19.5 µM (active)
same,AC50,[28],2.24 µM (active)
same,AC50,[29],2.5 µM (active)
same,AC50,[31],3.47 µM (active)
CCCCc1ccc2[nH]c(NC(=O)OC)nc2c1 [PARBENDAZOLE],IC50,[32],0.0104 µM (active)
same,IC50,[33],0.0106 µM (active)
same,AC50,Cytochrome P450 2D6,1.58 µM (inconclusive)
